Test results taken from US20050009840A1 (SUGEN, INC., priority 2003, published 2005).
Like-named read-outs stand apart in the source and are kept apart here.

What was measured:
[1] = target: T1, Met kinase domain (GST fusion protein) (Homo sapiens, UniProt P08581); assay: Met transphosphorylation assay (ELISA, poly(glu-tyr) substrate); assay type: biochemical; conditions: read-out: Met IC50;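 also: Cell-free ELISA with plate-bound poly(Glu:Tyr 4:1) phosphorylated by GST-fused Met kinase domain plus ATP and Mn2+, phosphotyrosine detected by anti-phosphotyrosine antibody with HRP and ABTS read-out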
T1 construct: Purified GST fusion protein containing the Met kinase domain
T1 sequence (P08581 1078-1345 limits assumed): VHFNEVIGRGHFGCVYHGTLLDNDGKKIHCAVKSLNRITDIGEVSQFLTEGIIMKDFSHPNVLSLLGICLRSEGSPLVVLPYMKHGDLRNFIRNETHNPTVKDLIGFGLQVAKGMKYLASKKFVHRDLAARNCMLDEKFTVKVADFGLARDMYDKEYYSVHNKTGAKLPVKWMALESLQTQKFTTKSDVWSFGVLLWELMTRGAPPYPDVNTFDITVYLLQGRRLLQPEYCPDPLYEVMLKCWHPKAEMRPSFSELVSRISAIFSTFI

HGFR = target: T2, HGFR (Homo sapiens, UniProt P08581); assay: HGFR continuous-coupled spectrophotometric assay; assay type: biochemical; conditions: for inhibition at 1 pM: Table 6, library procedure 41, read-out: % Inhibition (percent c-MET inhibition)
T2 construct: purchased Upstate 14-526
T2 sequence (P08581 974-1390 limits assumed): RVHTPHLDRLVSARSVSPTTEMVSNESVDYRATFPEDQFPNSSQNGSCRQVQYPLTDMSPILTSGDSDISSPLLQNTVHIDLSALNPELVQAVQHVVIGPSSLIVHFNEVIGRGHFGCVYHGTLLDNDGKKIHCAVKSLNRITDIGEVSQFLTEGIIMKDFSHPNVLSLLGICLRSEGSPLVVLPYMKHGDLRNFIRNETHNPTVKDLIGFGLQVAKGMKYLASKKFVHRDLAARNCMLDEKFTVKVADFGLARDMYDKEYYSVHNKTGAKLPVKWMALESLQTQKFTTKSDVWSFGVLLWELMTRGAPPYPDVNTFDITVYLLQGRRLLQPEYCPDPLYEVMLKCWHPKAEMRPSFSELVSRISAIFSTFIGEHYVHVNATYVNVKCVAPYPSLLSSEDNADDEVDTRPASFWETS

IC50 [1] | inhibition at 1 pM (HGFR) | Molecule | other results
> 20 µM | – | Nc1ncc(-c2ccc(C(F)(F)F)cc2)cc1OCc1c(Cl)cccc1Cl [Example I-25] | –
> 20 µM | – | CS(=O)(=O)Nc1ccccc1-c1cnc(N)c(OCc2c(Cl)cccc2Cl)c1 [Example I-26, N-{2-[6-Amino-5-(2,6-dichloro-benzyloxy)-pyridin-3-yl]-phenyl}-methanesulfonamide] | –
– | 26% | Nc1ncc(C(=O)NCc2noc(C(=O)N3CCC(CO)CC3)n2)cc1OCc1c(Cl)cccc1Cl [Example L-323] | –
– | 25% | Nc1ncc(C(=O)N2CCCC(Cc3ncccn3)C2)cc1OCc1c(Cl)cccc1Cl [Example L-324] | –
– | 26% | Nc1ncc(C(=O)N2CCC3(CC2)CC3C(=O)N2CCCCC2)cc1OCc1c(Cl)cccc1Cl [Example L-325] | –
– | 3% | Cc1noc([C@H]2CC[C@H](CNC(=O)c3cnc(N)c(OCc4c(Cl)cccc4Cl)c3)CC2)n1 [Example L-326] | –
– | 26% | Nc1ncc(C(=O)NCc2noc(C(=O)N3CC[C@H](O)C3)n2)cc1OCc1c(Cl)cccc1Cl [Example L-327] | –
– | 27% | Nc1ncc(C(=O)N2CCc3nnc(CCN4CCOCC4)n3CC2)cc1OCc1c(Cl)cccc1Cl [Example L-328] | –
– | 30% | C=C(Cl)/C(=C/O)COc1cc(C(=O)NC2COC3(CCN(Cc4[nH]cnc4C)CC3)C2)cnc1N [Example L-329] | –
– | 74% | CCC(CC)CN1CCC2(CC1)CC(NC(=O)c1cnc(N)c(OCc3c(Cl)cccc3Cl)c1)CO2 [Example L-330] | –
– | 23% | COCC1CN(CC(N)=O)CCN(C(=O)c2cnc(N)c(OCc3c(Cl)cccc3Cl)c2)C1 [Example L-331] | –
– | 21% | Nc1ncc(C(=O)NC2COC3(CCN(c4ncccn4)CC3)C2)cc1OCc1c(Cl)cccc1Cl [Example L-332] | –
– | 23% | Cc1nc(CCNC(=O)c2cnc(N)c(OCc3c(Cl)cccc3Cl)c2)cs1 [Example L-333] | –
– | 17% | CCCN(CCO)C1CCCN(C(=O)c2cnc(N)c(OCc3c(Cl)cccc3Cl)c2)CC1 [Example L-334] | –
– | 18% | Nc1ncc(C(=O)N2CCCC(N3CCOCC3)CC2)cc1OCc1c(Cl)cccc1Cl [Example L-335] | –
– | 20% | Nc1ncc(C(=O)NC2COC3(CCN(Cc4ccncc4)CC3)C2)cc1OCc1c(Cl)cccc1Cl [Example L-336] | –

IC50 [1] | inhibition at 1 pM (HGFR) | Molecule | other results
– | 20% | Nc1ncc(C(=O)N2CCC(O)(CN3CCCC3=O)C2)cc1OCc1c(Cl)cccc1Cl [Example L-337] | –
– | 21% | CC(C)CCNC(=O)C1CC12CCN(C(=O)c1cnc(N)c(OCc3c(Cl)cccc3Cl)c1)CC2 [Example L-338] | –
– | 18% | CN(CCc1ccccn1)CC1(O)CCN(C(=O)c2cnc(N)c(OCc3c(Cl)cccc3Cl)c2)C1 [Example L-339] | –
– | 19% | Cc1cc(CCC2CC3(CCN(C(=O)c4cnc(N)c(OCc5c(Cl)cccc5Cl)c4)CC3)CO2)no1 [Example L-340] | –
– | 20% | Nc1ncc(C(=O)N2CCCC(N3CCC(CO)CC3)CC2)cc1OCc1c(Cl)cccc1Cl [Example L-341] | –
– | 36% | Nc1ncc(C(=O)N2CCCC(O)(COc3cccc(F)c3)C2)cc1OCc1c(Cl)cccc1Cl [Example L-342] | –
– | 37% | Nc1ncc(C(=O)N2CCC3(CC2)COC(CCc2ccnnc2)C3)cc1OCc1c(Cl)cccc1Cl [Example L-343] | –
– | 41% | CCc1ccc(COCC2CCN(C(=O)c3cnc(N)c(OCc4c(Cl)cccc4Cl)c3)CC2)nc1 [Example L-344] | –
– | 45% | Cc1ccn2cc(CNC(=O)c3cnc(N)c(OCc4c(Cl)cccc4Cl)c3)nc2n1 [Example L-345] | –
– | 31% | Nc1ncc(C(=O)N2CCn3c(CO)nnc3C2)cc1OCc1c(Cl)cccc1Cl [Example L-346] | –
– | 38% | Cc1ccc2nc(CNC(=O)c3cnc(N)c(OCc4c(Cl)cccc4Cl)c3)cn2c1 [Example L-347] | –
– | 35% | Nc1ncc(C(=O)N2CCC(COc3cccc4cccnc34)C2)cc1OCc1c(Cl)cccc1Cl [Example L-348] | –
– | 32% | Nc1ncc(C(=O)N2CCC3(CC2)CC3C(=O)NCC2CC2)cc1OCc1c(Cl)cccc1Cl [Example L-349] | –
– | 34% | Nc1ncc(C(=O)N2CCC3(CC2)COC(CCc2cc(O)n[nH]2)C3)cc1OCc1c(Cl)cccc1Cl [Example L-350] | –
– | 35% | Cn1ccnc1SCC1(O)CCCN(C(=O)c2cnc(N)c(OCc3c(Cl)cccc3Cl)c2)CC1 [Example L-351] | –
– | 47% | CC(C)CNC(=O)c1ccc(Cl)c(CNC(=O)c2cnc(N)c(OCc3c(Cl)cccc3Cl)c2)c1 [Example L-352] | –

The remaining lines, values behind:

Molecule | IC50 [1] | inhibition at 1 pM (HGFR) | other results
Nc1ncc(-c2cccc(NS(=O)(=O)CCN3CCCC3CO)c2)nc1OCc1c(F)ccc(F)c1Cl (centres unmarked) | 1.38 µM | – | –
CN(C)C1CCN(C(=O)c2ccc(-c3cnc(N)c(OCc4ccc(C(C)(C)C)cc4)c3)cc2)C1 (stereo in doubt) [Example I-196, {4-[6-Amino-5-(4-tert-butyl-benzyloxy)-pyridin-3-yl]-phenyl}-[(3R)-3-dimethylamino-pyrrolidin-1-yl]-methanone] | – | – | IC50 ([1]; Table 2): 4.29 µM
Nc1ncc(-c2cccc(OCCN3CCOCC3)c2)cc1OCc1c(Cl)cccc1Cl [Example I-3, 3-(2,6-Dichloro-benzyloxy)-5-[3-(2-morpholin-4-yl-ethoxy)-phenyl]-pyridin-2-ylamine] | 0.59 µM | – | –
Nc1ncc(-c2cccc3[nH]ccc23)cc1OCc1c(Cl)cccc1Cl [Example I-4, 3-(2,6-Dichloro-benzyloxy)-5-(1H-indol-4-yl)-pyridin-2-ylamine] | 1.4 µM | – | –
Nc1ncc(-c2cccc3[nH]ccc23)cc1OCc1c(Cl)cccc1-c1cccc2[nH]ccc12 [Example I-5, 3-[2-Chloro-6-(1H-indol-4-yl)-benzyloxy]-5-(1H-indol-4-yl)-pyridin-2-ylamine] | 4.71 µM | – | –
CC(C)(C)OC(=O)n1cccc1-c1cnc(N)c(OCc2c(Cl)cccc2Cl)c1 [Example I-6, 2-[6-Amino-5-(2,6-dichloro-benzyloxy)-pyridin-3-yl]-pyrrole-1-carboxylic acid tert-butyl ester] | > 20 µM | – | –
Nc1ncc(-c2ccc[nH]2)cc1OCc1c(Cl)cccc1Cl [Example I-7, 3-(2,6-Dichloro-benzyloxy)-5-(1H-pyrrol-2-yl)-pyridin-2-ylamine] | 4.25 µM | – | –
Nc1ncc(-c2ccc(F)cc2)cc1OCc1c(Cl)cccc1Cl [Example I-8, 3-(2,6-Dichloro-benzyloxy)-5-(4-fluoro-phenyl)-pyridin-2-ylamine] | 8.01 µM | – | –
Nc1ncc(-c2ccccc2F)cc1OCc1c(Cl)cccc1Cl [Example I-10, 3-(2 6-Dichloro-benzyloxy)-5-(2-fluoro-phenyl)-pyridin-2-ylamine] | 6.09 µM | – | –
Nc1ncc(-c2cccc(F)c2)cc1OCc1c(Cl)cccc1Cl [Example I-11, 3-(2,6-Dichloro-benzyloxy)-5-(3-fluoro-phenyl)-pyridin-2-ylamine] | 13.8 µM | – | –
Nc1ccc(-c2cnc(N)c(OCc3c(Cl)cccc3Cl)c2)cc1 [Example I-12, 5-(4-Amino-phenyl)-3-(2,6-dichloro-benzyloxy)-pyridin-2-ylamine] | 0.606 µM | – | –
CS(=O)(=O)Nc1ccc(-c2cnc(N)c(OCc3c(Cl)cccc3Cl)c2)cc1 [Example I-13, N-{4-[6-Amino-5-(2,6-dichloro-benzyloxy)-pyridin-3-yl]-phenyl}-methanesulfonamide] | 0.44 µM | – | –
CC(=O)Nc1ccc(-c2cnc(N)c(OCc3c(Cl)cccc3Cl)c2)cc1 [Example I-14, N-{4-[6-Amino-5-(2,6-dichloro-benzyloxy)-pyridin-3-yl]-phenyl}-acetamide] | > 20 µM | – | –
Nc1ncc(-c2cccc(O)c2)cc1OCc1c(Cl)cccc1Cl [Example I-15, 3-[6-Amino-5-(2,6-dichloro-benzyloxy)-pyridin-3-yl]-phenol] | 1.34 µM | – | –
COc1ccc(-c2cnc(N)c(OCc3c(Cl)cccc3Cl)c2)cc1 [Example I-16, 3-(2,6-Dichloro-benzyloxy)-5-(4-methoxy-phenyl)-pyridin-2-ylamine] | 6.55 µM | – | –
Nc1ncc(-c2cccc(OC(F)(F)F)c2)cc1OCc1c(Cl)cccc1Cl [Example I-18, 3-(2,6-Dichloro-benzyloxy)- -5-(3-trifluoromethoxy-phenyl)-pyridin-2-ylamine] | > 20 µM | – | –
Nc1ncc(-c2ccccc2O)cc1OCc1c(Cl)cccc1Cl [Example I-19, 2-[6-Amino-5-(2,6-dichloro-benzyloxy)-pyridin-3-yl]-phenol] | 2.16 µM | – | –
Nc1ncc(-c2ccccc2Oc2ccccc2)cc1OCc1c(Cl)cccc1Cl [Example I-20, 3-(2,6-Dichloro-benzyloxy)-5-(2-phenoxy-phenyl)-pyridin-2-ylamine] | > 20 µM | – | –
Nc1ncc(-c2ccc(F)c(F)c2)cc1OCc1c(Cl)cccc1Cl [Example I-21, 3-(2,6-Dichloro-benzyloxy)-5-(3,4-difluoro-phenyl)-pyridin-2-ylamine] | 14.3 µM | – | –
CC(C)c1cccc(-c2cnc(N)c(OCc3c(Cl)cccc3Cl)c2)c1 [Example I-22, 3-(2,6-Dichloro-benzyloxy)-5-(3-isopropyl-phenyl)-pyridin-2-ylamine] | 15.9 µM | – | –
Nc1ncc(-c2ccccc2C(F)(F)F)cc1OCc1c(Cl)cccc1Cl [Example I-23, 3-(2,6-Dichloro-benzyloxy)-5-(2-trifluoromethyl-phenyl)-pyridin-2-ylamine] | > 20 µM | – | –
COc1ccccc1-c1cnc(N)c(OCc2c(Cl)cccc2Cl)c1 [Example I-24, 3-(2,6-Dichloro-benzyloxy)-5-(2-methoxy-phenyl)-pyridin-2-ylamine] | 11.5 µM | – | –
Nc1ncc(-c2ccc(CO)cc2)cc1OCc1c(Cl)cccc1Cl [Example I-27, {4-[6-Amino-5-(2,6-dichloro-benzyloxy)-pyridin-3-yl]-phenyl}-methanol] | 2.5 µM | – | –
(4-{6-Amino-5-[1-(2,6- dichloro-3-fluoro-phenyl)- ethoxy]-pyridin-3-yl}- phenyl)-(4-ethyl-piperizin- 1-yl)-methanone [Example I-633] | – | – | Ki (HGFR; Table 3, column 'Ki (μM) or I (%)': cells without % sign, read-out: Ki): 0.0472 µM
